Source: ChEMBL document CHEMBL3774375, “Structure-Based Identification of Inhibitory Fragments Targeting the p300/CBP-Associated Factor Bromodomain” (J Med Chem, 2016)
Active and inactive are the calls of the source. The rule behind the calls is not given here.

Legend:
[1] = molecular target: T1, Histone acetyltransferase KAT2B (Homo sapiens, UniProt Q92831)
Target sequence in this assay (Q92831 whole entry, looked up): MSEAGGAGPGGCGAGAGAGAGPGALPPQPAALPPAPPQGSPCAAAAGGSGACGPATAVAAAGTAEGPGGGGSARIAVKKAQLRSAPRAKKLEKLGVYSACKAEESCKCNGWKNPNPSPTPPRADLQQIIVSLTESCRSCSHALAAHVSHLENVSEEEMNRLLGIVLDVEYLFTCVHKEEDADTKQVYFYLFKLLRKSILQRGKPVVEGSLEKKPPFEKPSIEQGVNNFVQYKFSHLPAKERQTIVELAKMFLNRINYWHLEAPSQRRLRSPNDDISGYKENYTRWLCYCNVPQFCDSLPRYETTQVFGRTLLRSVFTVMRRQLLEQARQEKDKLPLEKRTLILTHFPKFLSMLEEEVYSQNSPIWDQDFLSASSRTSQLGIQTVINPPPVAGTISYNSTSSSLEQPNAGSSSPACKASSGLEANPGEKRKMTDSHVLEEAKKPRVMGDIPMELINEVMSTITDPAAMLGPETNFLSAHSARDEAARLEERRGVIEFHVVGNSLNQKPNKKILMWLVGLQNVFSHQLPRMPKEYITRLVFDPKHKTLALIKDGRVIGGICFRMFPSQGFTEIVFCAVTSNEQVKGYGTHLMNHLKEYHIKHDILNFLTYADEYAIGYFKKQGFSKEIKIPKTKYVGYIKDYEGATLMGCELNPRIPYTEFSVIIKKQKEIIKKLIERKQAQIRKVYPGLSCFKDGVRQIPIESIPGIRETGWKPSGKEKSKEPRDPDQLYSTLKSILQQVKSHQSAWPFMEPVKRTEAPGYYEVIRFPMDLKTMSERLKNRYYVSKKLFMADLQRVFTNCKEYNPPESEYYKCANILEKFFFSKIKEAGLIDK
Description: Binding affinity to recombinant N-terminal His-tagged PCAF (715 to 831 residues) (unknown origin) expressed in Escherichia coli Rosetta cells at 1 mM by differential scanning fluorimetry

[2] = molecular target: T2, Bromodomain-containing protein 7 (Homo sapiens) (UniProt Q9NPI1); experiment: Binding affinity to recombinant human BRD7 by differential scanning fluorimetry
T2 sequence (whole entry): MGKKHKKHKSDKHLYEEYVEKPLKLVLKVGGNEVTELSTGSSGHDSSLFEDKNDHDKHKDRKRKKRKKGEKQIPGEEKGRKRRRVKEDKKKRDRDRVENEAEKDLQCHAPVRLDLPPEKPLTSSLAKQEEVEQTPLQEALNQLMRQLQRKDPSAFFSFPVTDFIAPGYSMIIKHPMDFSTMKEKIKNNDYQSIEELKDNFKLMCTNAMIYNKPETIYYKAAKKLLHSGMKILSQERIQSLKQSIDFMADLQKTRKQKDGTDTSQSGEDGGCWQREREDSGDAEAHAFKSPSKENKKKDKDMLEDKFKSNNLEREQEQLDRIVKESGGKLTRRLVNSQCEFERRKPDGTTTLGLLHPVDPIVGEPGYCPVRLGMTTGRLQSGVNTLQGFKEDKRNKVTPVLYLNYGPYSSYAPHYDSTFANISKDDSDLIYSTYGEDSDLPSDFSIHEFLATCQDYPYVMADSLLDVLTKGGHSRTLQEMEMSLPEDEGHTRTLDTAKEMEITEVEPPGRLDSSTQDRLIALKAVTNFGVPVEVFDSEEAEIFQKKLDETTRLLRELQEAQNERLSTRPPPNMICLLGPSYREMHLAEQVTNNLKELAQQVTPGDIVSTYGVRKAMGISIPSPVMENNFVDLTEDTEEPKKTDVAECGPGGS

[3] = molecular target: T1, Histone acetyltransferase KAT2B; experiment: Binding affinity to N-terminal His-tagged PCAF (715 to 831 residues) (unknown origin) expressed in Escherichia coli Rosetta cells by isothermal titration calorimetry
Target sequence in this assay (Q92831 whole entry): as the sequence (Q92831 whole entry, looked up) above

[4] = molecular target: Chromatin remodeling regulator CECR2 (Homo sapiens) (UniProt Q9BXF3); experiment: Binding affinity to recombinant human CECR2 by differential scanning fluorimetry
[5] = molecular target: T1, Histone acetyltransferase KAT2B; experiment: Binding affinity to recombinant N-terminal His-tagged PCAF (715 to 831 residues) (unknown origin) expressed in Escherichia coli Rosetta cells at 0.5 mM by differential scanning fluorimetry
Target sequence in this assay (Q92831 whole entry, looked up): as the sequence (Q92831 whole entry, looked up) above

[6] = molecular target: T3, Bromodomain-containing protein 9 (Homo sapiens) (UniProt Q9H8M2); experiment: Inhibition of BRD9 (unknown origin) at 25 uM by alphascreen assay
T3 sequence (whole entry): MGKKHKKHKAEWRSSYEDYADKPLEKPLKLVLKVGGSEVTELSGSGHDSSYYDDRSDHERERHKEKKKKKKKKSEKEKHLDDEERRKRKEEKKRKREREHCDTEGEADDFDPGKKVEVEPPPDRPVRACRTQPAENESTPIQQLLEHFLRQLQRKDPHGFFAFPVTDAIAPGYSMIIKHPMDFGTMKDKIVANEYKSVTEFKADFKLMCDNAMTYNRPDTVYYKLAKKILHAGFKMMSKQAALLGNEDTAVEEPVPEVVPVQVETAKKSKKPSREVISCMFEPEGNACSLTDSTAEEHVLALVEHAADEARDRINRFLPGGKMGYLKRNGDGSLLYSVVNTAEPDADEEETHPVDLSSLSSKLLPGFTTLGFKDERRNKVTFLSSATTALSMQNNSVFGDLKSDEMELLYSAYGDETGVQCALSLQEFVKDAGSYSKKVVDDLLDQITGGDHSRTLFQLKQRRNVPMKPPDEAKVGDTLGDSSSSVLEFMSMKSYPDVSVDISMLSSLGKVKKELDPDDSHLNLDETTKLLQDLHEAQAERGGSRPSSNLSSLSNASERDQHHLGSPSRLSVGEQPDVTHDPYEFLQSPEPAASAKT

Chromatin remodeling regulator CECR2 (Homo sapiens), sequence (Q9BXF3 whole entry, looked up, the tested form may be a part): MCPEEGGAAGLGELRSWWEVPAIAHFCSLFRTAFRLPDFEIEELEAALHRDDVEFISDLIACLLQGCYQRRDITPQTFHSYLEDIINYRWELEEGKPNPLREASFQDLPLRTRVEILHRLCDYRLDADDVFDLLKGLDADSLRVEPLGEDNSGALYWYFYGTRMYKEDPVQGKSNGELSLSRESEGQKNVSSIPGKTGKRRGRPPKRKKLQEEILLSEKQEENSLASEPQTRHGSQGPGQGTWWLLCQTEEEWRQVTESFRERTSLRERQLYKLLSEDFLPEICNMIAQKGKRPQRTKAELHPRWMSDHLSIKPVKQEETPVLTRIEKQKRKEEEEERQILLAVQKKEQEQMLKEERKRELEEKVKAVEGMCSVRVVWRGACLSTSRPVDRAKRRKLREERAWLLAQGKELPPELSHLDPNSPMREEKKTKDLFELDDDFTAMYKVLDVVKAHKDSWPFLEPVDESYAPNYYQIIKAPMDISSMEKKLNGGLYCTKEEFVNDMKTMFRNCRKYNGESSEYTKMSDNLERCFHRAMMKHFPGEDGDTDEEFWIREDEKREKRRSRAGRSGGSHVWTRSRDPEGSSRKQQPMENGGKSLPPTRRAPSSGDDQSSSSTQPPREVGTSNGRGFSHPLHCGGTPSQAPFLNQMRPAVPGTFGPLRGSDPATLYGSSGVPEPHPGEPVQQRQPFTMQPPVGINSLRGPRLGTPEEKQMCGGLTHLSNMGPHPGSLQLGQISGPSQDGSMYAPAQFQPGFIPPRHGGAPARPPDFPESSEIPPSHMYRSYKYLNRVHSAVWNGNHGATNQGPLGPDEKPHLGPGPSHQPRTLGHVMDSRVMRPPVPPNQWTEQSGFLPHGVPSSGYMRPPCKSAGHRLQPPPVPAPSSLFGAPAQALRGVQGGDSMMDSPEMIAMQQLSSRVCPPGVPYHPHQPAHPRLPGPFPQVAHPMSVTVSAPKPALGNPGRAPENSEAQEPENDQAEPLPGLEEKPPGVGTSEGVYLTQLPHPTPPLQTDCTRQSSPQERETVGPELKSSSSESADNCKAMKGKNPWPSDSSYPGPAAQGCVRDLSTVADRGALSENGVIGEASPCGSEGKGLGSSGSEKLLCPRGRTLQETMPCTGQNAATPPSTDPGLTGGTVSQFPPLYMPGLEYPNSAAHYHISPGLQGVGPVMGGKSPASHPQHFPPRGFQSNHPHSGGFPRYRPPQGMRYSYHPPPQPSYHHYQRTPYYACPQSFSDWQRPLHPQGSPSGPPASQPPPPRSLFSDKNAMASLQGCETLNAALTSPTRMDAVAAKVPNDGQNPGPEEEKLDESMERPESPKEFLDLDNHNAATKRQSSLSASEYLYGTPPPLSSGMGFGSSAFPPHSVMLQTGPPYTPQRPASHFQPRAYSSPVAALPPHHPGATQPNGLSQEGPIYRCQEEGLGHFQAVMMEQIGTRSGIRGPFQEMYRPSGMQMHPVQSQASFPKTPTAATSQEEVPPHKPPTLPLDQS

Structure (SMILES) | ΔTm [1] [°C] | also measured
CN1Cc2ccccc2C1=O | 1.5 | 
CNC(=O)c1cc(OCC(=O)Nc2ccccc2)ccc1OC1CCOCC1 |  | ΔTm [2]: 6.5 °C; Kd [3]: 6.8 µM; ΔTm [4]: 7.1 °C; ΔTm [5]: 3.3 °C
Cc1c(N)c(=O)n(-c2ccccc2)n1C | 0.6 | 
Cn1c(=O)ccc2ccccc21 | 2 | 
NC(=O)c1ccc2[nH]ccc2c1 | 2 | 
CC(=O)Nc1ccc2c(C)cc(=O)n(C)c2c1 | 2.6 | inhibition [6]: Active
COc1cccc2onc(N)c12 | 0.8 | 
Cc1cc(=O)n(C)c2cc(NS(C)(=O)=O)ccc12 |  | inhibition [6]: Active
Oc1ccccc1-c1ccno1 | 1.3 | 
NC1CCN(C(=O)C2CC2)CC1 | 1 | 
Cc1nn(CCO)c2c1C(=O)CCC2 | 0.9 | 
NCc1ccc(-c2csnn2)cc1 | 1 | 
COC(=O)c1ccc(N2CCOCC2)nc1 | 0.7 | 
NC(=O)c1cccc2c1OCCO2 | 0.8 | 
